Results taken from patent US20250170154A1 (GreenStone Biosciences, Inc., priority 2023, published 2025).
Like-named read-outs stand apart in the source and are kept apart here.

Assays:
[1] = Approximate solubility in selected solvents by visual observation; format: physicochemical; settings: thermodynamic from solid
Procedure: Solubility testing of compound 2 was carried out by adding 20 μL aliquots (to a maximum of 1 mL) of selected solvents (water, methanol, DCM, and THF) to about 5 mg samples of compound 2 at 25 C with vortexing and sonication; and the approximate solubility determined by visual observation. Similar testing was carried out at 50 C, using about 10 mg samples of compound 2.

[2] = Intestinal stability, human intestinal S9; format: in vitro ADME
Procedure: The stability of compounds 1 and 2, and the control compound 7-hydroxycoumarin, were measured using human, rat, and mouse intestinal S9 fractions (Xenotech). Test compound working solutions were prepared by diluting 5 μL of 10 mM stock solutions in DMSO with 495 μL AN. S9 solutions were prepared by diluting the obtained S9 solutions to 1.0 mg/mL in 100 mM potassium phosphate buffer at pH 7.4 containing 10 mM D-saccharic acid-1,4-lactone. An Apricot automation workstation was used to add 100 μL/well of S9 solution to all reaction plates (Blank, T0, T5, T15, T30, T45, T60 and NCF60); 2 μL/well of compound working solutions were added to all 96-well reaction plates except the blank (T0, T5, T15, T30, T45, T60, and NCF60); 600 μL/well of stop solution (4° C. ACN containing 200 ng/mL tolbutamide and 200 ng/mL labetalol as internal standards) was added to the T0 reaction plate; all plates were pre-incubated at 37° C. for 10 minutes; a cofactor regenerating system (98 μL/well) was added, excluding the NCF60 plate which instead received 98 μL/well of 100 mM potassium phosphate buffer. All plates were then incubated at 37° C. To terminate reactions, 600 μL/well of stop solution was applied at specific end time points. After sealing and a 10-minute shaking, plates were centrifuged at 4000 rpm and 4° C. for 20 minutes. Concurrently, 300 μL/well of HPLC grade water was loaded onto eight new 96-well bioanalysis plates. Post-centrifugation, 100 μL supernatant from each reaction plate was transferred to its corresponding bioanalysis plate, shaken for 10 minutes, and then subjected to LC-MS/MS analysis (Shimadzu LC-40D LC system coupled to a Sciex Qtrap 6500 Plus mass spectrometer, using both positive and negative ion modes).

[3] = Pharmacokinetics in the rat, solid form (powder in mini-capsules); format: in vivo; settings: rat, in vivo
[4] = test system: chondrocyte pellets differentiated from human mesenchymal stem cells (MSCs); experiment: Mini-joint model, IL-1β inflamed chondrocyte pellets, PCR analysis; format: cell-based; settings: up to 5 μM with 0.01 ng/mL IL-1β for 3 days
Procedure: In the mini-joint model, human mesenchymal stem cells (MSCs) were differentiated into chondrocytes in pellet culture over a period of 3 weeks. The chondrocyte pellets were then maintained in a medium containing 0.5 ng/mL of TGF-β for 1 week. Inflammation was induced by treating the pellets with 1 ng/mL of IL-1β for 1 day. Following this, the pellets were treated with compound 2 at up to 5 μM together with 0.01 ng/mL of IL-1β to sustain the inflammatory environment for 3 days. At the conclusion of the treatment, the pellets were collected for PCR analysis.

With `O=c1c(-c2ccc(O)cc2)coc2cc(OCOP(=O)(O)O)cc(O)c12` [Compound 2, ((5-Hydroxy-3-(4-hydroxyphenyl)-4-oxo-4H-chromen-7-yl)oxy)methyl dihydrogen phosphate] the solubility ([1]; 25 °C, organic solvent or mixture, THF, both 25 and 50° C., read-out: solubility in THF) was 125000 to 250000 µg/mL, the solubility ([1]; 25 °C, organic solvent or mixture, methanol, both 25 and 50° C., read-out: solubility in methanol) was > 250000 µg/mL and the solubility ([1]; organic solvent or mixture, DCM, 25° C., read-out: solubility in DCM) was < 5000 µg/mL. For the same molecule, the solubility ([1]; water, 25° C., approximate, visual observation, read-out: solubility in water) was < 5000 µg/mL, the solubility ([1]; water, 50° C., approximate, visual observation, read-out: solubility in water) was ~5000 µg/mL and the “normalized control factor remaining” value [2] was 56.6%. It also gave a half-life at 1 µM ([2]; intestinal S9 fraction, pH 7.4) of 26.8 min, a microsomal CLint at 1 µM ([2]; intestinal S9 fraction, pH 7.4, read-out: intrinsic clearance rate) of 51.7 µL/min/mg and a half-life ([3]; male, SD, po) of ~120 min. For the same molecule, the Tmax ([3]; male, SD, po, 100 mg/kg) was ~10 min, the “decline of plasma concentration of dosed compound” value ([3]; 100 mg/kg) was “slower rapid decline in concentration than for solution dosing” and the COL2 expression [4] was “increasing”. The MMP12 expression [4] was “decreasing”, the TNF-α expression [4] was “decreasing” and the “chondrogenesis (expression of collagen A)” value [4] was “promote”.
